≈ marks a conversion by molar mass, not a printed value. Like-named read-outs stand apart in the source and are kept apart here.
Tests used:
Assay type in all cases: cell-based
[1] = system: methicillin-resistant coagulase-negative Staphylococcus (MRCNS) P1369; assay: microbe, parasite or virus in culture; conditions: Staphylococcus
Method: (§1) The MIC was determined via a microdilution assay in 96-well microtiter plates according to the broth microdilution guideline of Clinical and Laboratory Standards Institute (CLSI).

[2] = system: penicillin-resistant S. epidermidis (PRSE) P1389; assay: microbe, parasite or virus in culture
Method: (§2) Clinical isolates were obtained from the 302nd military hospital of Beijing, China, including penicillin-resistant S. aureus (PRSA) P1383, penicillin-resistant S. epidermidis (PRSE) P1389, methicillin-resistant S. aureus (MRSA) P1381, P1386 and P1374, methicillin-resistant coagulase-negative Staphylococcus (MRCNS) P1369, and penicillin-sensitive S. epidermidis (PSSE) P1111.
as §1

[3] = system: methicillin-resistant S. aureus (MRSA) P1386; assay: microbe, parasite or virus in culture
Method: as §2, §1

[4] = system: methicillin-resistant S. aureus (MRSA) P1374; assay: microbe, parasite or virus in culture
Method: as §2, §1

[5] = system: penicillin-sensitive S. epidermidis (PSSE) P1111; assay: microbe, parasite or virus in culture
Method: as §2, §1

[6] = system: methicillin-resistant S. aureus (MRSA) P1381; assay: microbe, parasite or virus in culture
Method: as §2, §1

[7] = system: penicillin-resistant S. aureus (PRSA) P1383; assay: microbe, parasite or virus in culture
Method: as §2, §1

S. aureus AB94004 = assay: Enzyme release assay (catalase); conditions: S. aureus AB94004, 37°C; 0.9% saline negative control; Figure 4C
Method: (§3) Figure 4 Secondary structure and enzyme release assay of Kn2-7. (A) and (B) Secondary structure analysis of the Kn2-7 and BmKn2 peptides. (A) Circular dichroism spectra of 0.1 mg/mL of Kn2-7 in water, 30% TFE/H2O or 70% TFE/H2O. (B) Circular dichroism spectra of 0.1 mg/mL of BmKn2 in water, 30% TFE/H2O or 70% TFE/H2O. (C) and (D) Enzyme release assay. (C) S. aureus AB94004 treated with Kn2-7 or BmKn2 was harvested, and the catalase activities of the supernatants were measured; 0.9% saline was used as the negative control, and ampicillin sodium was used as the antibiotic control. (D) E. coli AB94012 treated with Kn2-7 or BmKn2 was harvested, and the catalase activities in the supernatants were measured; 0.9% saline was used as the negative control, and kanamycin was used as the antibiotic control.
(§4) Bacterial suspensions and serial-diluted peptides were mixed at a ratio of 4∶1 in different tubes with a final volume of 2 ml. The mixtures were then incubated at 37°C with continuous shaking. At each time point, 200 µl of the treated bacterial suspension was transferred to sterilized tubes. After centrifugation, the supernatants were transferred to a sterilized 1.5-ml tube, and catalase activity was measured with a Catalase Assay Kit (Beyotime, Jiangsu, China) using the method for measuring peroxidase activity.

E. coli AB94012 [8] = assay: Enzyme release assay (catalase); conditions: E. coli AB94012, 37°C; 0.9% saline negative control; Figure 4D
Method: as §3, §4

E. coli AB94012 [9] = assay: Growth inhibitory assay (growth curves); conditions: at a concentration of 6.25 µg/mL; Figure 2C
Method: Figure 2 Gowth inhibitory activities of Kn2-7. (A) Growth curves of S. aureus AB94004 treated with Kn2-7, BmKn2 or antibiotics. (B) Growth curves of MRSA P1386 treated with Kn2-7, BmKn2 or antibiotics. (C) Growth curves of E. coli AB94012 treated with Kn2-7, BmKn2 or antibiotics.
The time growth curves of S. aureus and MRSA treated with BmKn2 or its derivatives were determined based on measurements taken at 630 nm at each time point. Different concentrations of peptide were added to the tested strains, which were cultured in 96-well plates using the same method as was used for determining the MIC.

[10] = Staphylococcus epidermidis, read-out: MIC

| Compound | MIC [1] [µg/mL] | MIC ([2]; Staphylococcus epidermidis) [µg/mL] | MIC ([3]; Staphylococcus aureus, MRSA) [µg/mL] | MIC ([4]; Staphylococcus aureus, MRSA) [µg/mL] | MIC [5, 10] [µg/mL] | MIC ([6]; Staphylococcus aureus, MRSA) [µg/mL] | MIC ([7]; Staphylococcus aureus) [µg/mL] | further results |
| --- | --- | --- | --- | --- | --- | --- | --- | --- |
| CO/N=C(\C(=O)N[C@@H]1C(=O)N2C(C(=O)O)=C(COC(C)=O)CS[C@H]12)c1csc(N)n1 [Cefotaxime] | 400 (≈ 878 µM) | 3.13 (≈ 6.87 µM) | 100 (≈ 220 µM) | 400 (≈ 878 µM) | 6.25 (≈ 13.7 µM) | 400 (≈ 878 µM) | 6.25 (≈ 13.7 µM) |  |
| CN[C@H](CC(C)C)C(=O)N[C@H]1C(=O)N[C@@H](CC(N)=O)C(=O)N[C@H]2C(=O)N[C@H]3C(=O)N[C@H](C(=O)N[C@H](C(=O)O)c4cc(O)cc(O)c4-c4cc3ccc4O)[C@H](O)c3ccc(c(Cl)c3)Oc3cc2cc(c3O[C@@H]2O[C@H](CO)[C@@H](O)[C@H](O)[C@H]2O[C@H]2C[C@](C)(N)[C@H](O)[C@H](C)O2)Oc2ccc(cc2Cl)[C@H]1O [Vancomycin] | 6.25 (≈ 4.31 µM) | 6.25 (≈ 4.31 µM) | 3.13 (≈ 2.16 µM) | 6.25 (≈ 4.31 µM) | 3.13 (≈ 2.16 µM) | 3.13 (≈ 2.16 µM) | 6.25 (≈ 4.31 µM) |  |
| CC1(C)S[C@@H]2[C@H](NC(=O)[C@H](N)c3ccccc3)C(=O)N2[C@H]1C(=O)O [ampicillin, reference compound] |  |  |  |  |  |  |  | Catalase activity of the supernatant over time (S. aureus AB94004): increasing catalase activity over time |
| NC[C@H]1O[C@H](O[C@H]2[C@H](O)[C@@H](O[C@H]3O[C@H](CO)[C@@H](O)[C@H](N)[C@H]3O)[C@H](N)C[C@@H]2N)[C@H](O)[C@@H](O)[C@@H]1O [kanamycin, reference compound] |  |  |  |  |  |  |  | Catalase activity of the supernatant over time (E. coli AB94012 [8]): increasing catalase activity over time; Growth inhibition of E. coli AB94012 (growth curve) (E. coli AB94012 [9]): inhibited the growth of E. coli AB94012 |
| Penicillin |  |  |  |  |  |  |  | MIC ([2]; P1389, penicillin resistant (PRSE) clinical isolate, repeated at least three times): 10000 µg/mL; MIC ([3]; P1386, methicillin resistant (MRSA) clinical isolate, repeated at least three times): 10000 µg/mL; MIC ([4]; P1374, methicillin resistant (MRSA) clinical isolate, repeated at least three times): 5000 µg/mL; MIC ([5]; P1111, penicillin sensitive (PSSE) clinical isolate, repeated at least three times): 25 µg/mL; MIC ([6]; P1381, methicillin resistant (MRSA) clinical isolate, repeated at least three times): 5000 µg/mL; MIC ([7]; P1383, penicillin resistant (PRSA) clinical isolate, repeated at least three times): 10000 µg/mL |
